≈ marks a conversion by molar mass, not a printed value. Positions of bridges follow the written chain, without caps; N, C: chain ends. Non-standard residues stand in square brackets, D forms with d. Residues, ends and D or L forms follow the SMILES beside them. Groups on a side chain read outwards from the residue. Chains are numbered I, II in the order given. *: point of attachment. Decanoyl = CCCCCCCCCC(=O)*; Dab = NCC[C@H](N)C(=O)O; Hexanoyl = CCCCCC(=O)*
Assays:
Format in all cases: cell-based
[1] = test system: Escherichia coli (strain DH5α); conditions: DH5α
How it was run: (§1)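 Broth microdilution MIC in LB; overnight cultures diluted to OD600 0.001 and mixed 1:1 with ⅔-serially diluted samples (stock 1 mg mL^−1 in H2O), 37° C for 18-24 h. MTT (0.1%) added; MIC read by eye as lowest concentration inhibiting visible growth (yellow).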

[2] = test system: Bacillus subtilis (strain BR151); conditions: strain BR151
How it was run: as §1

[3] = test system: Pseudomonas aeruginosa (strain PA01); assay: microbe, parasite or virus in culture; conditions: strain
How it was run: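 P. aeruginosa PAO1 grown overnight in LB, diluted to OD600 0.001 and mixed with ⅔-step peptide dilutions, then incubated at 37 °C for 18–24 h. After MTT staining, the lowest concentration with no visible growth was read by eye as the MIC.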

Row | MIC E. coli DH5α [1] | MIC B. subtilis BR151 [2] | MIC P. aeruginosa PAO1 [3] | Compound
1 | 1 µg/mL (≈ 0.208 µM) | 4 µg/mL (≈ 0.83 µM) | 1 µg/mL (≈ 0.208 µM) | CCCCCCCCCC(=O)NCCCC[C@H](NC(=O)[C@H](CC(C)C)NC(=O)[C@H](CCCCN)NC(=O)[C@H](CCCCNC(=O)[C@H](CC(C)C)NC(=O)[C@H](CCCCN)NC(=O)[C@H](CCCCNC(=O)[C@H](CC(C)C)NC(=O)[C@H](CCCCN)NC(=O)[C@H](CCCCNC(=O)[C@H](CC(C)C)NC(=O)[C@@H](N)CCCCN)NC(=O)[C@H](CC(C)C)NC(=O)[C@@H](N)CCCCN)NC(=O)[C@H](CC(C)C)NC(=O)[C@H](CCCCN)NC(=O)[C@H](CCCCNC(=O)[C@H](CC(C)C)NC(=O)[C@@H](N)CCCCN)NC(=O)[C@H](CC(C)C)NC(=O)[C@@H](N)CCCCN)NC(=O)[C@H](CC(C)C)NC(=O)[C@H](CCCCN)NC(=O)[C@H](CCCCNC(=O)[C@H](CC(C)C)NC(=O)[C@H](CCCCN)NC(=O)[C@H](CCCCNC(=O)[C@H](CC(C)C)NC(=O)[C@@H](N)CCCCN)NC(=O)[C@H](CC(C)C)NC(=O)[C@@H](N)CCCCN)NC(=O)[C@H](CC(C)C)NC(=O)[C@H](CCCCN)NC(=O)[C@H](CCCCNC(=O)[C@H](CC(C)C)NC(=O)[C@@H](N)CCCCN)NC(=O)[C@H](CC(C)C)NC(=O)[C@@H](N)CCCCN)C(N)=O [MSt-266, (KL)8(KKL)4(KKL)2(KKLKC10)] (I: H-KLK([Leu-Lys])KLKKLKKLK(Decanoyl)-NH2 / II: H-KLK([Leu-Lys])KLKKL / III: H-KLK([Leu-Lys])KL / IV: H-KLK([Leu-Lys])KL; amide I:6-IV:C, I:9-II:C, II:6-III:C)
2 | 2 µg/mL (≈ 0.863 µM) | 20 µg/mL (≈ 8.63 µM) | 1 µg/mL (≈ 0.432 µM) | CCCCCC(=O)NCCCC[C@H](NC(=O)[C@H](CC(C)C)NC(=O)[C@H](CCCCN)NC(=O)[C@H](CCCCNC(=O)[C@H](CC(C)C)NC(=O)[C@H](CCCCN)NC(=O)[C@H](CCCCNC(=O)[C@H](CC(C)C)NC(=O)[C@@H](N)CCCCN)NC(=O)[C@H](CC(C)C)NC(=O)[C@@H](N)CCCCN)NC(=O)[C@H](CC(C)C)NC(=O)[C@H](CCCCN)NC(=O)[C@H](CCCCNC(=O)[C@H](CC(C)C)NC(=O)[C@@H](N)CCCCN)NC(=O)[C@H](CC(C)C)NC(=O)[C@@H](N)CCCCN)C(N)=O [MSt-260, (KL)4(KKL)2(KKLKC6)] (I: H-KLK([Leu-Lys])KLKKLK(Hexanoyl)-NH2 / II: H-KLK([Leu-Lys])KL; amide I:6-II:C)
3 | 21 µg/mL (≈ 5.04 µM) | 7 µg/mL (≈ 1.68 µM) | 8 µg/mL (≈ 1.92 µM) | CC(C)C[C@H](NC(=O)[C@@H](N)CCN)C(=O)NCCCC[C@H](NC(=O)[C@H](CC(C)C)NC(=O)[C@@H](N)CCN)C(=O)N[C@@H](CCN)C(=O)N[C@@H](C)C(=O)NCCCC[C@H](NC(=O)[C@H](C)NC(=O)[C@H](CCN)NC(=O)[C@H](CCCCNC(=O)[C@H](CC(C)C)NC(=O)[C@@H](N)CCN)NC(=O)[C@H](CC(C)C)NC(=O)[C@@H](N)CCN)C(=O)N[C@@H](CCN)C(=O)N[C@@H](Cc1c[nH]c2ccccc12)C(=O)NCCCC[C@H](NC(=O)[C@H](Cc1c[nH]c2ccccc12)NC(=O)[C@H](CCN)NC(=O)[C@H](CCCCNC(=O)[C@H](C)NC(=O)[C@H](CCN)NC(=O)[C@H](CCCCNC(=O)[C@H](CC(C)C)NC(=O)[C@@H](N)CCN)NC(=O)[C@H](CC(C)C)NC(=O)[C@@H](N)CCN)NC(=O)[C@H](C)NC(=O)[C@H](CCN)NC(=O)[C@H](CCCCNC(=O)[C@H](CC(C)C)NC(=O)[C@@H](N)CCN)NC(=O)[C@H](CC(C)C)NC(=O)[C@@H](N)CCN)C(=O)N[C@@H](CCN)C(=O)N[C@@H](Cc1c[nH]c2ccccc12)C(N)=O [MSt-207, (DabL)8(KDabA)4(KDabW)2(KDabW)] (I: H-[Dab]LK([Leu-Dab])[Dab]AK[Dab]WK[Dab]W-NH2 / II: H-[Dab]LK([Leu-Dab])[Dab]AK[Dab]W / III: H-[Dab]LK([Leu-Dab])[Dab]A / IV: H-[Dab]LK([Leu-Dab])[Dab]A; amide I:6-IV:C, I:9-II:C, II:6-III:C; N-terminus assumed)
